Experimental findings from ChEMBL document CHEMBL1131943, “Inhibition of 4-hydroxyphenylpyruvate dioxygenase by sethoxydim, a potent inhibitor of acetyl-coenzyme A carboxylase” (Bioorg Med Chem Lett, 1999) are described below.

Test [1] concerns the target T1, 4-hydroxyphenylpyruvate dioxygenase (Sus scrofa, UniProt Q02110). The experiment in a line: The inhibitory activity on pig liver 4-hydroxyphenylpyruvate dioxygenase (HPPD) was evaluated.
Test [2] has as its target T1, 4-hydroxyphenylpyruvate dioxygenase. The experiment in a line: Inhibitory activity on pig liver 4-hydroxyphenylpyruvate dioxygenase (HPPD) was evaluated.
The target of test [3] is 4-hydroxyphenylpyruvate dioxygenase (Sus scrofa) (UniProt Q02110). Description: Compound was evaluated for complete competitive inhibition of 4-hydroxyphenylpyruvate dioxygenase (HPPD).
The target of test [4] is T1, 4-hydroxyphenylpyruvate dioxygenase. The experiment in a line: Compound was evaluated for competitive inhibition of 4-hydroxyphenylpyruvate dioxygenase (HPPD) (complete inhibition was observed at a concentration of 0.5-1.0 mM).

T1 sequence (Q02110 whole entry): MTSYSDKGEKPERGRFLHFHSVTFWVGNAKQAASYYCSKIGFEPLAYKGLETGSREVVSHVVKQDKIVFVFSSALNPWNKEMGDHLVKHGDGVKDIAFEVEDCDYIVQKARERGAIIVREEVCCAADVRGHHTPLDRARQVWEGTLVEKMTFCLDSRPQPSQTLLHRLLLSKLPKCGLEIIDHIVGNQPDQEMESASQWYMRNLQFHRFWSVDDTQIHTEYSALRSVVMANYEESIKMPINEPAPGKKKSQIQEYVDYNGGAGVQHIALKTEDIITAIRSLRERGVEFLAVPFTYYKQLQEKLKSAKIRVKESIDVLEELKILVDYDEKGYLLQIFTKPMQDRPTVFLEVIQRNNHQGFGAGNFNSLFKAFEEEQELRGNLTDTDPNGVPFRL
Sequence of 4-hydroxyphenylpyruvate dioxygenase (Sus scrofa) (Q02110 2-393 limits assumed): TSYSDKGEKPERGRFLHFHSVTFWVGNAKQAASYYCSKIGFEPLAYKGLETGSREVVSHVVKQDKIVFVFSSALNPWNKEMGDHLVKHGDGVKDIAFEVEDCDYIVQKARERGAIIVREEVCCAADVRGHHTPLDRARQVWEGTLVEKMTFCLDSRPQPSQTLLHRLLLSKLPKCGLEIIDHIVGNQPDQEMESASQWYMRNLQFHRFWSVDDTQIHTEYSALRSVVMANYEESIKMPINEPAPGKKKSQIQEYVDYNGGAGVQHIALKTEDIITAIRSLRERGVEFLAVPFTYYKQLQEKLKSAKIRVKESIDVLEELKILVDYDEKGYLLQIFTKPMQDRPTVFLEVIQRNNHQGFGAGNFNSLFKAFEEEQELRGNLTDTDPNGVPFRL

One may read the IC50 as the concentration needed to halve the response being measured. Consider `O=C1CCCC(=O)C1=C(O)c1ccc(C(F)(F)F)cc1[N+](=O)[O-]`, for which the IC50 in test [1] is 40 nM.
With `CS(=O)(=O)c1ccc(C(O)=C2C(=O)CCCC2=O)c(Cl)c1`, in test [2], the IC50 was found to be 45 nM.
In general, Ki refers to the equilibrium dissociation constant of an inhibitor or competing ligand from its target. Read a high Ki as a looser hold on the target. In test [3], `CCC/C(=N\OCC)C1=C(O)CC(CC(C)SCC)CC1=O` (centres undefined) [SETHOXYDIM] yielded an IC100 of 1 mM. Moreover, in test [4], the Ki amounted to 300000 nM.
